Assay results published in patent publication US11491127B2, “Therapeutic use of compounds” (UCL BUSINESS LTD, priority 2010, dated 2022).
Where two headings read alike, the source gives them in different places.

How the values were obtained:
[1] = test system: self-sustaining status epilepticus in Sprague Dawley rats; conditions: previously shown (Chang et al., 2009); cited from earlier work
[2] = test system: phosphoinositide (PIP and PIP2) turnover in Dictyostelium AX2 cells; test: Dictyostelium phospholipid labelling (PIP and PIP2 turnover); assay type: cell-based, Dictyostelium discoideum; conditions: for activity at 500 µM: Dictyostelium, 0.1 h; for reduction of PIP2 signalling / reduction of PIP signalling: Table 1
Experimental: Phospholipid labelling was quantified using a Typhoon phosphor-imager. Even loading was determined using total lipid stain with copper sulphate.

[3] = test system: inositol trisphosphate (InsP3) levels in Dictyostelium; conditions: Eickholt et al., 2005; cited from earlier work
[4] = test system: PTZ-induced epileptiform activity in entorhinal cortex-hippocampal slices; test: In vitro PTZ acute seizure model, entorhinal cortex-hippocampus slices; assay type: cell-based, rat; conditions: PTZ 2 mM, [K+] 6 mM; compounds equimolar 1 mM; 30 to 40 minutes after application
Experimental: (§1) The rats (p21) were decapitated after killing by intraperitoneal injection with an overdose of pentobarbitone (500 mg/kg). The brain was removed and placed in ice-cold sucrose solution in mM: NaCl 87, KCl 2.5, MgCl2 7, CaCl2 0.5, NaH2PO4 1.25, sucrose 75, glucose 25, equilibrated with 95% 02/5% CO2 (pH 7.4). Horizontal combined entorhinal cortex-hippocampus slices (350 μm) were prepared with a Leica vibratome (Leica V T1200S) and were then stored in an interface chamber that contained artificial cerebrospinal fluid solution (aCSF) containing in mM: NaCl 119, KCl 2.5, MgSO4 4, CaCl2 4, NaHCO326.2, NaH2PO4 1, glucose 11, and gassed with 95% O2/5% CO2. They were stored for over one hour before being transferred to a submersion recording chamber continually perfused with carbogenated aCSF for recording. Field potential recordings were made by placing glass microelectrodes (˜1-2 MΩ) filled with aCSF solution in stratum radiatum of CA1. Bipolar stimulating electrodes were positioned in the Schaffer collateral/commissural fibre pathway in stratum radiatum to confirm slice viability. In the PTZ acute seizure model, PTZ (2 mM) was added to the perfusate and [K+] was increased to 6 mM in order to induce epileptiform activity (Armand et al., 1998). In the low Mg^2+ acute seizure model, Mg^2+ free aCSF was applied to generate rhythmic short recurrent discharges. Novel anticonvulsants were applied once the frequency and amplitude of the epileptiform discharges were stable over a period of 10 min. Anticonvulsant effects were evaluated by measuring the variation of frequency of the discharges every minute. The data acquired from the 30 to 40 minutes after application novel anticonvulsants were compared by ANOVA followed by post-hoc testing using Tukey test, using SPSS statistical analysis.

[5] = test system: release of 3H arachidonic acid / palmitic acid radiolabel from Dictyostelium cells; test: Fatty acid release (3H radiolabel release from labelled cells); assay type: cell-based, Dictyostelium discoideum; conditions: for activity at 500 µM: Dictyostelium, 0.5 h, 3H-AA labelled cells, 0.5 mM treatment, read-out: AA release [% of control]
[6] = test system: inositol levels in Dictyostelium cells; test: Inositol levels in treated Dictyostelium cells; assay type: cell-based, Dictyostelium discoideum; conditions: time period causing phosphoinositide attenuation (9 min)
Experimental: Following a 6 min incubation, labelling solution was removed and cells were lysed in acidified methanol and phospholipids were separated as previously detailed (Williams et al., 1999). Phospholipid labelling was quantified using a Typhoon phosphor-imager. Even loading was determined using total lipid stain with copper sulphate. Inositol levels were measured from five hour developed cells (similar to phospholipid labelling), following lyophilisation, as previously described (Maslanski & Busa, 1990).

[7] = Table 2; cited from earlier work
[8] = target: T1, human myo-inositol synthase (Homo sapiens, UniProt Q9NPH2); conditions: Shaltiel et al., 2004, 2007a; cited from earlier work
T1 sequence (Q9NPH2 1-558): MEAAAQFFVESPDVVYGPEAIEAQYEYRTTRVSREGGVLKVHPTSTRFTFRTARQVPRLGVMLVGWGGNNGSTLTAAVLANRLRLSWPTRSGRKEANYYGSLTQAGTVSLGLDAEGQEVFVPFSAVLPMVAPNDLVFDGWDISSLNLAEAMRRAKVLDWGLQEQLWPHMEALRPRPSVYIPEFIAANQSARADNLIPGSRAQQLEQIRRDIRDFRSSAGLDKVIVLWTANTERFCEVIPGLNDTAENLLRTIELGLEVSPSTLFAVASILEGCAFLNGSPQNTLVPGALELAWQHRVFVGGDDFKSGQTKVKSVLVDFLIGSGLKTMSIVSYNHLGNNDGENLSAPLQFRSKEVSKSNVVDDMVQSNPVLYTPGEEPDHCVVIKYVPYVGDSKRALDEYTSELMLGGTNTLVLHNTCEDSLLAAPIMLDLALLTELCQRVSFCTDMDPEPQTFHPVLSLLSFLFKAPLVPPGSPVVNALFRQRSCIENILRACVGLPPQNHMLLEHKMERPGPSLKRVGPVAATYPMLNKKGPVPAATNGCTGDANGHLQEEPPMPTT

[9] = test system: low magnesium-induced burst discharges in entorhinal cortex-hippocampal slices; test: In vitro low Mg2+ acute seizure model, entorhinal cortex-hippocampus slices; assay type: cell-based, rat; conditions: 1 mM, 30-40 minutes after application
Experimental: as §1, with “In the low Mg^2+ acute seizure model, Mg^2+ free aCSF was applied to generate rhythmic short recurrent discharges. Novel anticonvulsants were applied once the frequency and amplitude of the epileptiform discharges were stable over a period of 10 min.” left out, “The data acquired from the 30 to 40 minutes after application novel anticonvulsants were compared by ANOVA followed by post-hoc testing using Tukey test, using SPSS statistical analysis.” left out

[10] = test system: self-sustaining status epilepticus in Sprague Dawley rats; test: In vivo status epilepticus (perforant path stimulation); set-up: species or system rat; conditions: 400 mg/kg
Experimental: This method has been described in detail previously (Walker et al., 1999). In brief, male Sprague Dawley rats […] were anesthetized with 1-2% isoflurane in O2. An earth electrode was positioned subcutaneously, and a monopolar recording electrode was implanted stereotactically into the right hippocampus (coordinates, 2.5 mm lateral and 4 mm caudal from bregma). A bipolar stimulating electrode was implanted in the right hemisphere and advanced into the angular bundle (coordinates, 4.4 mm lateral and 8.1 mm caudal from bregma) to stimulate the perforant path. The depths of the electrodes were adjusted to maximize the slope of the dentate granule cell field potential (Guo et al., 1999). The electrodes were held in place with dental acrylic and skull screws. The animals were allowed to recover from anaesthesia. Seven days later, the perforant path was electrically stimulated with 4-5 mA 50 μsec monopolar pulses at 20 Hz for 2 hr; this induced self-sustaining status epilepticus. After 10 min of self-sustaining status epilepticus, compounds or vehicle were administered and the behavioural seizures and EEG were monitored for 3 hours. At this point diazepam (10 mg/kg) was administered to all animals to stop the status epilepticus. Groups were compared by ANOVA followed by post-hoc testing using Tukey test, using SPSS.

[11] = test system: uptake of 3H arachidonic acid / palmitic acid into Dictyostelium cells; test: Fatty acid uptake (3H radiolabel incorporation into cells); assay type: cell-based, Dictyostelium discoideum; conditions: 3H-AA; FIG. 9
[12] = read-out: PIP Level (% control), Table 1, 0.5 mM compound, 3 min pre-treatment + 6 min labelling, wild type Dictyostelium

Structure (SMILES): O=C1NC(=O)C(c2ccccc2)(c2ccccc2)N1 [phenytoin]
- response of the status epilepticus model [1]: resistant

Structure (SMILES): CCC=C(C)C(=O)O [2-methyl-2-pentenoic acid]
- activity at 500 µM [2, 12]: 14.8%
- InsP3 depletion [3]: strong InsP3 depletion

Structure (SMILES): CCCCCCCCC(=O)O [nonanoic acid]
- activity at 500 µM [2, 12]: 8%
- activity at 500 µM ([2]; read-out: PIP level % control, Table 2, VPA and straight chain acids in Dictyostelium): 8%
- reduction of PIP2 signalling ([2]; wild type Dictyostelium): 93%
- reduction of PIP signalling ([2]; wild type Dictyostelium): 92%
- frequency of epileptiform discharges (seizure discharge frequency) [4]: 20.9±7.5%
- activity at 500 µM ([5]; Table 3, 30 min): 66%
- reduction in inositol levels [6]: do not acutely deplete inositol
- pKa [7]: 4.95

Structure (SMILES): CCCC(CCC)C(N)=O [valpromide, 2-propylpentamide, reference compound]
- activity at 500 µM [2, 12]: 69.3%
- radiolabel release activity relative to control ([5]; Table 3, 30 min, 0.5 mM): virtually no inhibition
- inhibition of human myo-inositol synthase [8]: weak inhibition

Structure (SMILES): CCCCC(C)CCC(=O)O (stereo not shown) [4-methyloctanoic acid]
- activity at 500 µM [2, 12]: 12%
- reduction of PIP2 signalling ([2]; wild type Dictyostelium): 93%
- reduction of PIP signalling ([2]; wild type Dictyostelium): 88%
- frequency of epileptiform discharges (seizure discharge frequency) [4]: 49.1±4.4%
- frequency of low magnesium-induced burst discharges [9]: almost abolished
- frequency of low magnesium-induced burst discharges ([9]; listed as 4-MO): 1.6±3.1 % of baseline
- animals in which status epilepticus terminated (spike frequency of less than 1 Hz) [10]: all
- seizure control in words ([10]; 3 hour test period): protected against seizures over the test period
- animals in which seizures completely stopped ([10]; after 2 hours, 7 animals per group): 7 animals
- animals in which seizure stop was maintained ([10]; by three hours): five out of seven
- mean spike frequency ([10]; first hour): 39.3±11.3%
- mean spike frequency ([10]; second hour): 18.1±10.3%
- mean spike frequency ([10]; third hour): 26.9±12.3%
- inhibitory effect on radiolabel release ([5]; 3H-AA, FIG. 9): weak
- activity at 500 µM ([5]; Table 3, 30 min): 66%
- effect on 3H-AA uptake compared with VPA [11]: reduced effect on uptake
- reduction in inositol levels [6]: do not acutely deplete inositol
